Laboratory results reported in paper PMC10746158, “Archaeal GPN-loop GTPases involve a lock-switch-rock mechanism for GTP hydrolysis” (mBio, 2023).

Molecular target: T1, SaGPN (Sulfolobus acidocaldarius, UniProt Q4J9A7)
T1 construct: gene Saci_1281; E. coli BL21(DE3) Rosetta; Y2-A240 built, 14 C-terminal residues disordered
T1 sequence (Q4J9A7 1-254): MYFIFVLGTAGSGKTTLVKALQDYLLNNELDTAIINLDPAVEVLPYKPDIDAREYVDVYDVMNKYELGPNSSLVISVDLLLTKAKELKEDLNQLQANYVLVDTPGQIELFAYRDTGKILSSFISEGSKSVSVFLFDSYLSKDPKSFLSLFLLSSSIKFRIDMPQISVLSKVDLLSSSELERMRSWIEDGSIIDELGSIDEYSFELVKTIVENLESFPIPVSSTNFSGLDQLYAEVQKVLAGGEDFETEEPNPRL
Assay: isothermal titration calorimetry
Assay type: binding

Kd [nM]	Compound
6.15	Nc1nc2c(ncn2[C@@H]2O[C@H](COP(=O)(O)OP(=O)(O)O)[C@@H](O)[C@H]2O)c(=O)[nH]1 [GDP]
22	Nc1nc2c(ncn2[C@@H]2O[C@H](COP(=O)(O)OP(=O)(O)NP(=O)(O)O)[C@@H](O)[C@H]2O)c(=O)[nH]1 [GppNHp]
2.2	Nc1nc2c(ncn2[C@@H]2O[C@H](COP(=O)(O)OP(=O)(O)OP(=O)(O)O)[C@@H](O)[C@H]2O)c(=O)[nH]1 [GTP]
